Test results taken from patent publication US20260007681A1, “INDOLE DERIVATIVES AS ESTROGEN RECEPTOR DEGRADERS” (REGENTS OF THE UNIVERSITY OF MICHIGAN, priority 2022, published 2026).

Target: ER (Homo sapiens (Human), UniProt P03372)
Assay: Western blot analysis (Compounds B1-B278)
Assay type: cell-based
Details: ER degradation by traditional Western blot; DC50 classes
Method in brief: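 Compound-treated cells were lysed in RIPA buffer (Tris.HCl pH 7.6, 1% NP-40, deoxycholate, 0.1% SDS) with protease inhibitors; equal protein was resolved on 10% SDS-PAGE, transferred to PVDF and immunoblotted. Band intensities were quantified and normalized to GAPDH.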

Sequence of ER (P03372 whole entry): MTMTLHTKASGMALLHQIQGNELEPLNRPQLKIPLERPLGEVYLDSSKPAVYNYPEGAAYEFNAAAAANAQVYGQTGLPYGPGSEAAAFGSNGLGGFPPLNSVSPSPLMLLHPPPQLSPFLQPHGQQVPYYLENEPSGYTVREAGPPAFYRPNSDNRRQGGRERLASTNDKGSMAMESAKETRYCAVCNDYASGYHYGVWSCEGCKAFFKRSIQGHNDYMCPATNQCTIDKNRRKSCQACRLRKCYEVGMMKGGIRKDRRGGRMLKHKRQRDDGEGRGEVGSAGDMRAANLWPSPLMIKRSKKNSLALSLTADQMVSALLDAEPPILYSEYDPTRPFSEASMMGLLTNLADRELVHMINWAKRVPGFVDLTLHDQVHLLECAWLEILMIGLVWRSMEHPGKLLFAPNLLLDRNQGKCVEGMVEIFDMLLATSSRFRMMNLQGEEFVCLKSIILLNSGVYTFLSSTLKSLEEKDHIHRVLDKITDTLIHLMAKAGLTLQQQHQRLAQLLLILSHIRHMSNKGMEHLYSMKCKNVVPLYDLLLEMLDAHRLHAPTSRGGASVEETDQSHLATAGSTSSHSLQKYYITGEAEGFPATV

Structure (SMILES)	Traditional Western Degradation Potency
C[C@@H]1Cc2c([nH]c3ccccc23)[C@@H](c2ccc(N3CCC(C(=O)N4CCC(N5Cc6cc7c(cc6C5)C(=O)N(C5CCC(=O)NC5=O)C7=O)CC4)CC3)cc2F)N1CC(F)F (stereo partly drawn) [Compound B232, 6-(1-(1-(4-((1R,3R)-2-(2,2-difluoroethyl)-3-methyl-2,3,4,9-tetrahydro-1H-pyrido[3,4-b]indol-1-yl)-3-fluorophenyl)piperidine-4-carbonyl)piperidin-4-yl)-2-(2,6-dioxopiperidin-3-yl)-6,7-dihydropyrrolo[3,4-f]isoindole-1,3(2H,5H)-dione]	A (“A”: <10 nM)
C[C@@H]1Cc2c([nH]c3ccccc23)[C@@H](c2ccc(C3CCC(C(=O)N4CCC(N5Cc6cc7c(cc6C5)C(=O)N(C5CCC(=O)NC5=O)C7=O)CC4)CC3)cc2F)N1CC(F)F (stereo partly drawn) [Compound B233, 6-(1-(4-(4-((1R,3R)-2-(2,2-difluoroethyl)-3-methyl-2,3,4,9-tetrahydro-1H-pyrido[3,4-b]indol-1-yl)-3-fluorophenyl)cyclohexane-1-carbonyl)piperidin-4-yl)-2-(2,6-dioxopiperidin-3-yl)-6,7-dihydropyrrolo[3,4-f]isoindole-1,3(2H,5H)-dione]	B (“B”: 10-100 nM)
C[C@@H]1Cc2c([nH]c3ccccc23)[C@@H](c2ccc(C3CCC(C(=O)N4CCC(N5Cc6cc7c(cc6C5)C(=O)N(C5CCC(=O)NC5=O)C7=O)CC4)CC3)cn2)N1CC(F)F (stereo partly drawn) [Compound B234, 6-(1-(4-(6-((1S,3R)-2-(2,2-difluoroethyl)-3-methyl-2,3,4,9-tetrahydro-1H-pyrido[3,4-b]indol-1-yl)pyridin-3-yl)cyclohexane-1-carbonyl)piperidin-4-yl)-2-(2,6-dioxopiperidin-3-yl)-6,7-dihydropyrrolo[3,4-f]isoindole-1,3(2H,5H)-dione]	C (“C”: >100 nM)
C[C@@H]1Cc2c([nH]c3ccccc23)[C@@H](c2ccc(C3=CCC(C(=O)N4CCC(N5Cc6cc7c(cc6C5)C(=O)N(C5CCC(=O)NC5=O)C7=O)CC4)CC3)nc2)N1CC(F)F (stereo partly drawn) [Compound B235, 6-(1-(4-(5-((1R,3R)-2-(2,2-difluoroethyl)-3-methyl-2,3,4,9-tetrahydro-1H-pyrido[3,4-b]indol-1-yl)pyridin-2-yl)cyclohex-3-ene-1-carbonyl)piperidin-4-yl)-2-(2,6-dioxopiperidin-3-yl)-6,7-dihydropyrrolo[3,4-f]isoindole-1,3(2H,5H)-dione]	C (“C”: >100 nM)
C[C@@H]1Cc2c([nH]c3ccccc23)[C@@H](c2cnc(C3=CCC(C(=O)N4CCC(N5Cc6cc7c(cc6C5)C(=O)N(C5CCC(=O)NC5=O)C7=O)CC4)CC3)nc2)N1CC(F)F (stereo partly drawn) [Compound B236, 6-(1-(4-(5-((1R,3R)-2-(2,2-difluoroethyl)-3-methyl-2,3,4,9-tetrahydro-1H-pyrido[3,4-b]indol-1-yl)pyrimidin-2-yl)cyclohex-3-ene-1-carbonyl)piperidin-4-yl)-2-(2,6-dioxopiperidin-3-yl)-6,7-dihydropyrrolo[3,4-f]isoindole-1,3(2H,5H)-dione]	B (“B”: 10-100 nM)
C[C@@H]1Cc2c([nH]c3ccccc23)[C@@H](c2ccc(C3=CCC(C(=O)N4CCC(N5Cc6cc7c(cc6C5)C(=O)N(C5CCC(=O)NC5=O)C7=O)CC4)CC3)cc2)N1CC(F)F (stereo partly drawn) [Compound B237, 6-(1-(4′-((1R,3R)-2-(2,2-difluoroethyl)-3-methyl-2,3,4,9-tetrahydro-1H-pyrido[3,4-b]indol-1-yl)-2,3,4,5-tetrahydro-[1,1′-biphenyl]-4-carbonyl)piperidin-4-yl)-2-(2,6-dioxopiperidin-3-yl)-6,7-dihydropyrrolo[3,4-f]isoindole-1,3(2H,5H)-dione]	B (“B”: 10-100 nM)
C[C@@H]1Cc2c([nH]c3ccccc23)[C@@H](c2ccc(C3CCC(C(=O)N4CCC(N5Cc6cc7c(cc6C5)C(=O)N(C5CCC(=O)NC5=O)C7=O)CC4)CC3)nc2)N1CC(F)F (stereo partly drawn) [Compound B238, 6-(1-(4-(5-((1R,3R)-2-(2,2-difluoroethyl)-3-methyl-2,3,4,9-tetrahydro-1H-pyrido[3,4-b]indol-1-yl)pyridin-2-yl)cyclohexane-1-carbonyl)piperidin-4-yl)-2-(2,6-dioxopiperidin-3-yl)-6,7-dihydropyrrolo[3,4-f]isoindole-1,3(2H,5H)-dione]	C (“C”: >100 nM)
C[C@@H]1Cc2c([nH]c3ccccc23)[C@@H](c2ccc(C3CCC(C(=O)N4CCC(N5Cc6cc7c(cc6C5)C(=O)N(C5CCC(=O)NC5=O)C7=O)CC4)CC3)c(F)c2)N1CC(F)F (stereo partly drawn) [Compound B239, 6-(1-(4-(4-((1R,3R)-2-(2,2-difluoroethyl)-3-methyl-2,3,4,9-tetrahydro-1H-pyrido[3,4-b]indol-1-yl)-2-fluorophenyl)cyclohexane-1-carbonyl)piperidin-4-yl)-2-(2,6-dioxopiperidin-3-yl)-6,7-dihydropyrrolo[3,4-f]isoindole-1,3(2H,5H)-dione]	B (“B”: 10-100 nM)

Now from value to compound:

Traditional Western Degradation Potency	Structure (SMILES)
B (“B”: 10-100 nM)	C[C@@H]1Cc2c([nH]c3ccccc23)[C@@H](c2c(F)cc(C3=CCC4(CC3)CCN(C(=O)CN3Cc5cc6c(cc5C3)C(=O)N(C3CCC(=O)NC3=O)C6=O)CC4)cc2F)N1CC(F)F (stereo partly drawn) [Compound B240, 6-(2-(9-(4-((1R,3R)-2-(2,2-difluoroethyl)-3-methyl-2,3,4,9-tetrahydro-1H-pyrido[3,4-b]indol-1-yl)-3,5-difluorophenyl)-3-azaspiro[5.5]undec-8-en-3-yl)-2-oxoethyl)-2-(2,6-dioxopiperidin-3-yl)-6,7-dihydropyrrolo[3,4-f]isoindole-1,3(2H,5H)-dione]
C (“C”: >100 nM)	C[C@@H]1Cc2c([nH]c3ccccc23)[C@@H](c2ccc(C3=CCC4(CC3)CCN(C(=O)CN3Cc5cc6c(cc5C3)C(=O)N(C3CCC(=O)NC3=O)C6=O)CC4)cc2F)N1CC(F)F (stereo partly drawn) [Compound B241, 6-(2-(9-(4-((1R,3R)-2-(2,2-difluoroethyl)-3-methyl-2,3,4,9-tetrahydro-1H-pyrido[3,4-b]indol-1-yl)-3-fluorophenyl)-3-azaspiro[5.5]undec-8-en-3-yl)-2-oxoethyl)-2-(2,6-dioxopiperidin-3-yl)-6,7-dihydropyrrolo[3,4-f]isoindole-1,3(2H,5H)-dione]
C (“C”: >100 nM)	C[C@@H]1Cc2c([nH]c3ccccc23)[C@@H](c2ccc(C3CCC4(CC3)CCN(C(=O)CN3Cc5cc6c(cc5C3)C(=O)N(C3CCC(=O)NC3=O)C6=O)CC4)cc2F)N1CC(F)F (stereo partly drawn) [Compound B243, 6-(2-(9-(4-((1R,3R)-2-(2,2-difluoroethyl)-3-methyl-2,3,4,9-tetrahydro-1H-pyrido[3,4-b]indol-1-yl)-3-fluorophenyl)-3-azaspiro[5.5]undecan-3-yl)-2-oxoethyl)-2-(2,6-dioxopiperidin-3-yl)-6,7-dihydropyrrolo[3,4-f]isoindole-1,3(2H,5H)-dione]
C (“C”: >100 nM)	C[C@@H]1Cc2c([nH]c3ccccc23)[C@@H](c2c(F)cc(C3CCC4(CC3)CCN(C(=O)CN3Cc5cc6c(cc5C3)C(=O)N(C3CCC(=O)NC3=O)C6=O)CC4)cc2F)N1CC(F)F (stereo partly drawn) [Compound B244, 6-(2-(9-(4-((1R,3R)-2-(2,2-difluoroethyl)-3-methyl-2,3,4,9-tetrahydro-1H-pyrido[3,4-b]indol-1-yl)-3,5-difluorophenyl)-3-azaspiro[5.5]undecan-3-yl)-2-oxoethyl)-2-(2,6-dioxopiperidin-3-yl)-6,7-dihydropyrrolo[3,4-f]isoindole-1,3(2H,5H)-dione]
B (“B”: 10-100 nM)	C[C@@H]1Cc2c([nH]c3ccccc23)[C@@H](c2ccc(C3=CCC(C(=O)N4CCC(N5Cc6cc7c(cc6C5)C(=O)N(C5CCC(=O)NC5=O)C7=O)CC4)CC3)cc2F)N1CC(C)(C)F (stereo partly drawn) [Compound B245, 2-(2,6-dioxopiperidin-3-yl)-6-(1-(3′-fluoro-4′-((1R,3R)-2-(2-fluoro-2-methylpropyl)-3-methyl-2,3,4,9-tetrahydro-1H-pyrido[3,4-b]indol-1-yl)-2,3,4,5-tetrahydro-[1,1′-biphenyl]-4-carbonyl)piperidin-4-yl)-6,7-dihydropyrrolo[3,4-f]isoindole-1,3(2H,5H)-dione]
C (“C”: >100 nM)	C[C@@H]1Cc2c([nH]c3ccccc23)[C@@H](c2ccc(C3=CCC(C(=O)N4CCC(N5Cc6cc7c(cc6C5)C(=O)N(C5CCC(=O)NC5=O)C7=O)CC4)CC3)cc2F)N1CC(C)(F)F (stereo partly drawn) [Compound B246, 6-(1-(4′-((1R,3R)-2-(2,2-difluoropropyl)-3-methyl-2,3,4,9-tetrahydro-1H-pyrido[3,4-b]indol-1-yl)-3′-fluoro-2,3,4,5-tetrahydro-[1,1′-biphenyl]-4-carbonyl)piperidin-4-yl)-2-(2,6-dioxopiperidin-3-yl)-6,7-dihydropyrrolo[3,4-f]isoindole-1,3(2H,5H)-dione]
C (“C”: >100 nM)	C[C@@H]1Cc2c([nH]c3ccccc23)[C@@H](c2ncc(C3=CCC(C(=O)N4CCC(N5Cc6cc7c(cc6C5)C(=O)N(C5CCC(=O)NC5=O)C7=O)CC4)CC3)cc2F)N1CC(C)(F)F (stereo partly drawn) [Compound B247, 6-(1-(4-(6-((1S,3R)-2-(2,2-difluoropropyl)-3-methyl-2,3,4,9-tetrahydro-1H-pyrido[3,4-b]indol-1-yl)-5-fluoropyridin-3-yl)cyclohex-3-ene-1-carbonyl)piperidin-4-yl)-2-(2,6-dioxopiperidin-3-yl)-6,7-dihydropyrrolo[3,4-f]isoindole-1,3(2H,5H)-dione]
